Measured values as given in US8143290B2, “Chemical compounds 572” (AstraZeneca AB, priority 2006, dated 2012).

Biological target: T1, recombinant human GR (Homo sapiens, UniProt P04150)
T1 construct: purchased Panvera/Invitrogen P2812 (kit P2893)
T1 sequence (P04150 1-777): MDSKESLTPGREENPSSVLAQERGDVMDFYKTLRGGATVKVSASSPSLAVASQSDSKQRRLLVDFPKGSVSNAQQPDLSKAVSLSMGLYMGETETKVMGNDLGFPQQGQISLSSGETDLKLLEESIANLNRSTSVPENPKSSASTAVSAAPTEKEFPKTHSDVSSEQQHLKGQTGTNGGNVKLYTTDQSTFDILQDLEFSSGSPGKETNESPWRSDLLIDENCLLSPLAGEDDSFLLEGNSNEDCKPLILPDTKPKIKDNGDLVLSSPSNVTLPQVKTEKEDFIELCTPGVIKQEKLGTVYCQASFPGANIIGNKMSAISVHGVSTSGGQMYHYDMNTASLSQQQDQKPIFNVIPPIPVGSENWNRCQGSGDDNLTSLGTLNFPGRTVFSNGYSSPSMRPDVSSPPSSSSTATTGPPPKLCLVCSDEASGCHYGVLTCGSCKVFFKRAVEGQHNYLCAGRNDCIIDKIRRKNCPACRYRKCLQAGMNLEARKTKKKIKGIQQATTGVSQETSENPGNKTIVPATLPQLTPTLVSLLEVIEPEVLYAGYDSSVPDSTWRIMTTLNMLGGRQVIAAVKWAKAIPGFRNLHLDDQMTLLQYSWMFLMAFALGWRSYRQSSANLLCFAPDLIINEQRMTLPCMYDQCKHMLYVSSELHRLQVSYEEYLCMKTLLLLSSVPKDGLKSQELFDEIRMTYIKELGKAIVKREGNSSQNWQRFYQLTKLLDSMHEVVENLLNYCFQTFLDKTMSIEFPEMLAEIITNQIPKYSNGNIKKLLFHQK
Test: Human Glucocorticoid Receptor (GR) Assay, fluorescence polarization
Format: binding
Details: GS Red tracer, incubated 2 h at r.t., XLfit model 205, read-out: GRhuFL_FP_v2 Mean IC50
Description: Human Glucocorticoid Receptor (GR) Assay
The assay is based on a commercial kit from Panvera/Invitrogen (Part number P2893). The assay technology is fluorescence polarization. […] The GR and Stabilizing Peptide reagents are stored at −70° C. while the GS Red is stored at −20° C. Also included in the kit are 1M DTT (Panvera, Part number P2325, stored at −20° C.) and GR Screening buffer 10× (Panvera, Part number P2814, stored at −70° C. initially but once thawed stored at r.t.). Avoid repeated freeze/thaws for all reagents. The GR Screening buffer 10× comprises 100 mM potassium phosphate, 200 mM sodium molybdate, 1 mM EDTA and 20% DMSO.
0% control was 100% DMSO and 100% control was […] Dexamethasone. Background solution (8 μL; assay buffer 10×, Stabilizing Peptide, DTT and ice cold MQ water) was added to the background wells. GS Red solution (7 μL; assay buffer 10×, Stabilizing Peptide, DTT, GS Red and ice cold water) was added to all wells except background wells. GR solution (7 μL; assay buffer 10×, Stabilizing Peptide, DTT, GR and ice cold water) was added to all wells. The plate was sealed and incubated in a dark at r.t. for 2 h.

Row | Compound | IC50
1 | CCc1cccc([C@@H](Oc2ccc3c(cnn3-c3ccc(F)cc3)c2)[C@H](C)NC(=O)C(F)(F)F)c1 [Example 22, N-[(1R,2S)-1-(3-ethylphenyl)-1-[1-(4-fluorophenyl)indazol-5-yl]oxy-propan-2-yl]-2,2,2-trifluoro-acetamide] | 4.7 nM
2 | CCc1cccc([C@@H](Oc2ccc3c(cnn3-c3ccc(F)cc3)c2)[C@H](C)NC(=O)CO)c1 [Example 23, N-[(1R,2S)-1-(3-ethylphenyl)-1-[1-(4-fluorophenyl)indazol-5-yl]oxy-propan-2-yl]-2-hydroxy-acetamide] | 3.2 nM
3 | Cc1cccc([C@@H](Oc2ccc3c(cnn3-c3ccc(F)cc3)c2)[C@H](C)NC(=O)C(F)(F)F)c1 [Example 24, 2,2,2-trifluoro-N-[(1R,2S)-1-[1(4-fluorophenyl)indazol-5-yl]oxy-1-(3-methylphenyl)propan-2-yl]acetamide] | 3.2 nM
4 | CCSCc1ccc([C@@H](Oc2ccc3c(cnn3-c3ccc(F)cc3)c2)[C@H](C)NC(=O)C(F)(F)F)cc1 [Example 25, N-[(1R,2S)-1-[4-(ethylsulfanylmethyl)phenyl]-1-[1-(4-fluorophenyl)indazol-5-yl]oxy-propan-2-yl]-2,2,2-trifluoro-acetamide] | 11 nM
5 | CC[S+]([O-])Cc1ccc([C@@H](Oc2ccc3c(cnn3-c3ccc(F)cc3)c2)[C@H](C)NC(=O)C(F)(F)F)cc1 (stereo partly drawn) [Example 26, N-[(1R,2S)-1-[4-(ethylsulfinylmethyl)phenyl]-1-[1-(4-fluorophenyl)indazol-5-yl]oxy-propan-2-yl]-2,2,2-trifluoro-acetamide] | 5.9 nM
6 | CCSCc1ccc([C@@H](Oc2ccc3c(cnn3-c3ccc(F)cc3)c2)[C@H](C)NC(=O)CO)cc1 [Example 27, N-[(1R,2S)-1-[4-(ethylsulfanylmethyl)phenyl]-1-[1-(4-fluorophenyl)indazol-5-yl]oxy-propan-2-yl]-2-hydroxy-acetamide] | 3.2 nM
7 | C[C@H](NC(=O)CF)[C@H](Oc1ccc2c(cnn2-c2ccc(F)cc2)c1)c1ccccc1 [Example 45, 2-Fluoro-N-[(1R,2S)-1-[1-(4-fluorophenyl)indazol-5-yl]oxy-1-phenyl-propan-2-yl]acetamide] | 2.6 nM
8 | CCc1ccc([C@@H](Oc2ccc3c(cnn3-c3ccc(F)cc3)c2)[C@H](C)NC(=O)C(F)(F)F)cc1 [Example 46, N-[(1R,2S)-1-(4-ethylphenyl)-1-[1-(4-fluorophenyl)indazol-5-yl]oxy-propan-2-yl]-2,2,2-trifluoro-acetamide] | 3.4 nM
9 | CCc1ccc([C@@H](Oc2ccc3c(cnn3-c3ccc(F)cc3)c2)[C@H](C)NC(=O)CF)cc1 [Example 50, N-[(1R,2S)-1-(4-ethylphenyl)-1-[1-(4-fluorophenyl)indazol-5-yl]oxy-propan-2-yl]-2-fluoro-acetamide] | 2.9 nM
10 | CCc1ccc([C@@H](Oc2ccc3c(cnn3-c3ccc(F)cc3)c2)[C@H](C)NC(=O)C(C)C)cc1 [Example 51, N-[(1R,2S)-1-(4-ethylphenyl)-1-[1-(4-fluorophenyl)indazol-5-yl]oxy-propan-2-yl]-2-methyl-propanamide] | 4.3 nM
11 | COc1cccc([C@@H](Oc2ccc3c(cnn3-c3ccc(F)cc3)c2)[C@H](C)NC(=O)CF)c1 [Example 53, 2-Fluoro-N-[(1R,2S)-1-[1-(4-fluorophenyl)indazol-5-yl]oxy-1-(3-methoxyphenyl)propan-2-yl]acetamide] | 3.5 nM
12 | COCC(=O)N[C@@H](C)[C@H](Oc1ccc2c(cnn2-c2ccc(F)cc2)c1)c1cccc(OC)c1 [Example 54, N-[(1R,2S)-1-[1-(4-fluorophenyl)indazol-5-yl]oxy-1-(3-methoxyphenyl)propan-2-yl]-2-methoxy-acetamide] | 2.9 nM

Continued, values first:

Row | IC50 | Compound
13 | 25 nM | C[C@H](NC(=O)CCCN)[C@H](Oc1ccc2c(cnn2-c2ccc(F)cc2)c1)c1ccccc1 [Example 28, 4-Amino-N-[(1R,2S)-1-[1-(4-fluorophenyl)indazol-5-yl]oxy-1-phenyl-propan-2-yl]butanamide]
14 | 2.8 nM | COCC(=O)N[C@@H](C)[C@H](Oc1ccc2c(cnn2-c2ccc(F)cc2)c1)c1ccccc1 [Example 31, N-[(1R,2S)-1-[1-(4-fluorophenyl)indazol-5-yl]oxy-1-phenyl-propan-2-yl]-2-methoxy-acetamide]
15 | 18 nM | C[C@H](NC(=O)Cc1ccccc1)[C@H](Oc1ccc2c(cnn2-c2ccc(F)cc2)c1)c1ccccc1 [Example 33, N-[(1R,2S)-1-[1-(4-fluorophenyl)indazol-5-yl]oxy-1-phenyl-propan-2-yl]-2-phenyl-acetamide]
16 | 2.4 nM | CC(=O)OCC(=O)N[C@@H](C)[C@H](Oc1ccc2c(cnn2-c2ccc(F)cc2)c1)c1ccccc1 [Example 34, [(1R,2S)-1-[1-(4-fluorophenyl)indazol-5-yl]oxy-1-phenyl-propan-2-yl]carbamoylmethyl acetate]
17 | 2.1 nM | COC(=O)C(=O)N[C@@H](C)[C@H](Oc1ccc2c(cnn2-c2ccc(F)cc2)c1)c1ccccc1 [Example 35, Methyl [(1R,2S)-1-[1-(4-fluorophenyl)indazol-5-yl]oxy-1-phenyl-propan-2-yl]carbamoylformate]
18 | 10 nM | C[C@H](NC(=O)C(=O)O)[C@H](Oc1ccc2c(cnn2-c2ccc(F)cc2)c1)c1ccccc1 [Example 36, [(1R,2S)-1-[1-(4-fluorophenyl)indazol-5-yl]oxy-1-phenyl-propan-2-yl]carbamoylformic acid]
19 | 2.4 nM | CC(C)C(=O)N[C@@H](C)[C@H](Oc1ccc2c(cnn2-c2ccc(F)cc2)c1)c1ccccc1 [Example 37, N-[(1R,2S)-1-[1-(4-fluorophenyl)indazol-5-yl]oxy-1-phenyl-propan-2-yl]-2-methyl-propanamide]
20 | 2.4 nM | C[C@H](NC(=O)CCl)[C@H](Oc1ccc2c(cnn2-c2ccc(F)cc2)c1)c1ccccc1 [Example 38, 2-Chloro-N-[(1R,2S)-1-[1-(4-fluorophenyl)indazol-5-yl]oxy-1-phenyl-propan-2-yl]acetamide]
21 | 6.4 nM | C[C@H](NC(=O)C(Cl)Cl)[C@H](Oc1ccc2c(cnn2-c2ccc(F)cc2)c1)c1ccccc1 [Example 39, 2,2-Dichloro-N-[(1R,2S)-1-[1-(4-fluorophenyl)indazol-5-yl]oxy-1-phenyl-propan-2-yl]acetamide]
22 | 3.4 nM | C[C@H](NC(=O)C(Cl)(Cl)Cl)[C@H](Oc1ccc2c(cnn2-c2ccc(F)cc2)c1)c1ccccc1 [Example 40, 2,2,2-Trichloro-N-[(1R,2S)-1-[1-(4-fluorophenyl)indazol-5-yl]oxy-1-phenyl-propan-2-yl]acetamide]
23 | 2.6 nM | CCCC(=O)N[C@@H](C)[C@H](Oc1ccc2c(cnn2-c2ccc(F)cc2)c1)c1ccccc1 [Example 41, N-[(1R,2S)-1-[1-(4-fluorophenyl)indazol-5-yl]oxy-1-phenyl-propan-2-yl]butanamide]
24 | 2.2 nM | C[C@H](NC(=O)C1CCC1)[C@H](Oc1ccc2c(cnn2-c2ccc(F)cc2)c1)c1ccccc1 [Example 43, N-[(1R,2S)-1-[1-(4-fluorophenyl)indazol-5-yl]oxy-1-phenyl-propan-2-yl]cyclobutanecarboxamide]
25 | 2.7 nM | C[C@H](NC(=O)C(F)F)[C@H](Oc1ccc2c(cnn2-c2ccc(F)cc2)c1)c1ccccc1 [Example 44, 2,2-Difluoro-N-[(1R,2S)-1-[1-(4-fluorophenyl)indazol-5-yl]oxy-1-phenyl-propan-2-yl]acetamide]
26 | 2.5 nM | C[C@H](NC(=O)C(F)Cl)[C@H](Oc1ccc2c(cnn2-c2ccc(F)cc2)c1)c1ccccc1 (stereo partly drawn) [Example 47, 2-Chloro-2-fluoro-N-[(1R,2S)-1-[1-(4-fluorophenyl)indazol-5-yl]oxy-1-phenyl-propan-2-yl]acetamide]
27 | 2.9 nM | C[C@H](O)C(=O)N[C@@H](C)[C@H](Oc1ccc2c(cnn2-c2ccc(F)cc2)c1)c1ccccc1 [Example 48, (2S)-N-[(1R,2S)-1-[1-(4-fluorophenyl)indazol-5-yl]oxy-1-phenyl-propan-2-yl]-2-hydroxy-propanamide]
28 | 3.3 nM | COc1cccc([C@@H](Oc2ccc3c(cnn3-c3ccc(F)cc3)c2)[C@H](C)NC(=O)C(C)C)c1 [Example 55, N-[(1R,2S)-1-[1-(4-fluorophenyl)indazol-5-yl]oxy-1-(3-methoxyphenyl)propan-2-yl]-2-methyl-propanamide]
